In article PMC8878464, “Fenchone Derivatives as a Novel Class of CB2 Selective Ligands: Design, Synthesis, X-ray Structure and Therapeutic Potential” (Molecules, 2022):
“And” between values parts separate entries of the source, which are not always exact repeats. Equal entries are not always repeated. “Also recorded” adds a separate entry of the source. Where two headings read alike, the source gives them in different places.

Experiments:
human CB2R (hCB2R) = human CB2R (hCB2R) (Homo sapiens, UniProt P34972); experiment: [3H]CP-55,940 competition displacement binding assay, hCB2R membranes
Procedure: (§1) The compounds were further characterized using a radioligand binding assay to determine their affinities for CB1R and CB2R based on each test compound’s ability to displace the radiolabeled CB1R/CB2R agonist CP-55,940 from membranes of cells expressing the human CB1R and CB2R [24].
(§2) Membranes from cells expressing hCB1R and hCB2R were purchased from Charles River, (Cat#A317 and A318, respectively; OH, USA). Solutions of test compounds ranging from 0.1 nM to 10 mM were prepared in DMSO. The desired amount of membrane preparation was diluted with ice-cold assay buffer (50 mM Tris-HCl, 2.5 mM EDTA, 5 mM MgCl2, 0.1% BSA, pH 7.4) and was vortexed. […] The assays were incubated for 90 min at 30 °C and then immediately filtered on WHATMAN GF/B Filter Paper (Fired) using a Brandel M-24R Harvester followed by six washes with ice cold wash buffer (50 mM Tris-HCl, 2.5 mM EDTA, 5 mM MgCl2, 0.1% BSA, pH 7.4). Radioactivity was detected by adding the Filter Paper directly to the ULTIMA GOLD scintillation cocktail (PerkinElmer, Waltham, MA, USA), incubation at 20 °C for 60 min and then counted using a Tri-Carb 4910TR liquid scintillation counter (PerkinElmer, Waltham, MA, USA).
Each curve represents the mean of three experiments performed in triplicate.

hCB2R = biological target: T1, hCB2R (Homo sapiens, UniProt P34972); experiment: [35S]GTPγS binding assay at hCB2R; format: biochemical; settings: for functional activity at hCB2R (agonist / antagonist / inverse agonist): [35S]GTPγS binding; for EC50: increase in [35S]GTPγS binding to hCB2R, two independent experiments in triplicate
T1 construct: purchased Charles River A318; host or cells: CHO-K1 cells
Procedure: The method used for measuring agonist-stimulated binding of [^35S]GTPγS was based on a described protocol. Membranes (5 μg protein) were incubated in GTPγS assay buffer (50 mM Tris HCl (pH 7.4), 0.2 mM EGTA, 9 mM MgCl2, 150 mM NaCl, 1 mg/mL BSA) containing 100 μM GDP, 0.05 nM [^35S]GTPγS and test compounds at various concentrations. Vacuum filtration was used to separate bound ligand from free ligand. We used 10 μM GTPS to determine nonspecific binding. Basal binding was assayed in the absence of the ligand and in the presence of GDP.
Each symbol represents the mean percentage increase in [^35S]GTPγS binding ± SE.

human CB1R (hCB1R) = biological target: T2, human CB1R (hCB1R) (Homo sapiens, UniProt P21554); experiment: [3H]CP-55,940 competition displacement binding assay, hCB1R membranes
T2 construct: purchased Charles River A317
Procedure: as §1, §2

[1] = system: zymosan-induced paw inflammation; experiment: Zymosan-induced hind paw swelling (oedema) in mice; format: in vivo; settings: 6 h after 60 μg zymosan paw injection
TNF-α = experiment: Serum TNF-α (ELISA) after zymosan injection in mice; format: in vivo; settings: 24 h after zymosan
Procedure: Control mice were injected with vehicle.
A mouse TNFα ELISA kit was used according to the manufacturer’s instructions (R&D Systems, Minneapolis, MN, USA).

[2] = system: zymosan-induced hyperalgesia; experiment: von Frey monofilament pain assay in zymosan-injected mice; format: in vivo; settings: 15 and 25 mg/kg ip, after 6 h, p < 0.01
Procedure: We injected 40 μL of 1.5% (w/v) zymosan A in 0.9% saline into the right hind paw of the mice to induce inflammation. […] Control mice were injected with vehicle. Paw swelling and pain perception were measured after 2, 6 and 24 h.

[3] = displacement of [3H]CP-55,940, membranes of CHO-K1 cells expressing human CB2R, read-out: Ki (nM) hCB2R
[4] = maximal effect as percentage of HU-308 response at 1 µM

T2 sequence (P21554 whole entry): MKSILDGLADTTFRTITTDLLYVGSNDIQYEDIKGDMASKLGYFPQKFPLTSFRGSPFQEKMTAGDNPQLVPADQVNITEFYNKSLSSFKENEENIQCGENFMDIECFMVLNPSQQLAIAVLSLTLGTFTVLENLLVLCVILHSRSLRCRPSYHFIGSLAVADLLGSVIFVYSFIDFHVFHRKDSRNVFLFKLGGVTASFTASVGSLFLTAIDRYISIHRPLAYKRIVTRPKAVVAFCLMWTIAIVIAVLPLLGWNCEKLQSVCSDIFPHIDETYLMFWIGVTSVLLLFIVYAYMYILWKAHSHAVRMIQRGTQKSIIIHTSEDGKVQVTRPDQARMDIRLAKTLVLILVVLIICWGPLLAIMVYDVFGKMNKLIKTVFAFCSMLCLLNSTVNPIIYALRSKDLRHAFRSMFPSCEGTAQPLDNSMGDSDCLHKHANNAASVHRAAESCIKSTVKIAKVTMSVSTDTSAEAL
T1 sequence (P34972 whole entry): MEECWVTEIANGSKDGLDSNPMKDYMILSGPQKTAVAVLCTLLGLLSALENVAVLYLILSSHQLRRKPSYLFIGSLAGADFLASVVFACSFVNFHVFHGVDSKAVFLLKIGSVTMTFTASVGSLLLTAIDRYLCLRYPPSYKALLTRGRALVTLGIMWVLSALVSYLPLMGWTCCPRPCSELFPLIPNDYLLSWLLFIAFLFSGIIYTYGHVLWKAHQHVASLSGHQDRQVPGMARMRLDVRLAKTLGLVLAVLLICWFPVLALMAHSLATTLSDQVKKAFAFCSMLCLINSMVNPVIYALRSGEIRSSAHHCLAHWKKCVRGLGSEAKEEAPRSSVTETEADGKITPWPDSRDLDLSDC
Chain of human CB2R (hCB2R) (P34972 whole entry): as above

Row | Compound | Ki (human CB2R (hCB2R); [3]) | functional activity at hCB2R (agonist / antagonist / inverse agonist) (hCB2R) | EC50 (hCB2R) [nM] | Ki (human CB1R (hCB1R); read-out: Ki (nM) hCB1R) [nM] | also measured
1 | COc1cc(C)cc(OC)c1C1(O)C2(C)CCC(C2)C1(C)C (stereo not shown) [Compound 1f, 2-(2′,6′-Dimethoxy-4′-methylphenyl)-1,3,3-trimethylbicyclo[2.2.1]heptan-2-ol] | 233 nM |  |  |  | 
2 | CCCCCc1cc(OC)c(C2(O)C3(C)CCC(C3)C2(C)C)c(OC)c1F (stereo not shown) [Compound 4b, 2-(3′-Fluoro-2′,6′-dimethoxy-4′-pentylphenyl)-1,3,3-trimethylbicyclo[2.2.1]heptan-2-ol] | 28.3 nM | agonist | 305 |  | E(max)% (hCB2R; [4]): 54.2%
3 | CCCCCCC(C)(C)c1cc(O)c(C2(O)C3(C)CCC(C3)C2(C)C)c(OC)c1 (stereo not shown) [Compound 5c, 2-(2′-Hydroxy-6′-methoxy-4′-(2″-methyloctan-2″-yl)phenyl)-1,3,3-trimethylbicyclo-[2.2.1]heptan-2-ol] | 107 nM |  |  | > 10000 | 
4 | CCCCCCc1ccc(OC)c(C2(O)C3(C)CCC(C3)C2(C)C)c1OC (stereo not shown) [Compound 2a, 2-(3′-Hexyl-2′,6′-dimethoxyphenyl)-1,3,3-trimethylbicyclo[2.2.1]heptan-2-ol] | 224 nM and 223 nM |  |  | > 10000 | 
5 | CCCCCCC(C)(C)c1cc(OC)c(C2(O)C3(C)CCC(C3)C2(C)C)c(OC)c1F (stereo not shown) [Compound 4d, 2-(3′-fluoro-2′,6′-dimethoxy-4′-(2″-methyloctan-2″-yl)phenyl)-1,3,3-trimethylbicyclo[2.2.1]heptan-2-ol] | 56.6 nM | agonist | 104 |  | E(max)% (hCB2R; [4]): 119%
6 | CCCc1ccc(OC)c(C2(O)C3(C)CCC(C3)C2(C)C)c1 (stereo not shown) [Compound 3b, 2-(2′-Methoxy-5′-propylphenyl)-1,3,3-trimethylbicyclo[2.2.1]heptan-2-ol] | 610 nM |  |  |  | 
7 | CCCCCCC(C)(C)c1cc(OC)c(C2(O)C3(C)CCC(C3)C2(C)C)c(OC)c1F (stereo not shown) [Compound 4c, 2-(3′-fluoro-2′,6′-dimethoxy-4′-(2″-methyloctan-2″-yl)phenyl)-1,3,3-trimethylbicyclo[2.2.1]heptan-2-ol] | 438 nM |  |  | > 10000 | 
8 | CCCCCCc1ccc(OC)c(C2(O)C3(C)CCC(C3)C2(C)C)c1OC (stereo not shown) [Compound 2b, 2-(3′-Hexyl-2′,6′-dimethoxyphenyl)-1,3,3-trimethylbicyclo[2.2.1]heptan-2-ol] | 73.4 nM | weakly stimulated; also recorded: agonist | 1940 |  | E(max)% (hCB2R): 46.2%
9 | 2-(2′-Methoxy-5′-octylphenyl)-1,3,3-trimethylbicyclo[2.2.1]heptan-2-ol [Compound 3g] |  |  |  |  | Ki (human CB1R (hCB1R); displacement of [3H]CP-55,940, class word NB, read-out: Ki (nM) hCB1R): > 10000 nM
10 | CCCCCCC(C)(C)c1cc(O)c(C2(O)C3(C)CCC(C3)C2(C)C)c(OC)c1 (stereo not shown) [Compound 5d, 2-(2′-Hydroxy-6′-methoxy-4′-(2″-methyloctan-2″-yl)phenyl)-1,3,3-trimethylbicyclo-[2.2.1]heptan-2-ol] |  | agonist | 14.8 |  | E(max)% (hCB2R; [4]): 105%; Ki (human CB2R (hCB2R); Ki (nM) hCB2R): 24.6 nM and 24.5 nM
11 | CCCCCCC(C)(C)c1cc(OC)c(C2(O)C3(C)CCC(C3)C2(C)C)c(OC)c1 (stereo not shown) [Compound 1c, 2-(2′,6′-Dimethoxy-4′-(2″-methyloctan-2″-yl)phenyl)-1,3,3-trimethylbicyclo[2.2.1]heptan-2-ol] | 56.8 nM | agonist | 121 | > 10000 | 
12 | CCC(C)(C)c1ccc(OC)c(C2(O)C3(C)CCC(C3)C2(C)C)c1 (stereo not shown) [Compound 3e, 2-(2′-Methoxy-5′-(tert-pentyl)phenyl)-1,3,3-trimethylbicyclo[2.2.1] heptan-2-ol] | 2870 nM |  |  | > 10000 | 
13 | CCCCCc1cc(OC)c(C2(O)C3(C)CCC(C3)C2(C)C)c(OC)c1 (stereo not shown) [Compound 1a, 2-(2′,6′-Dimethoxy-4′-pentylphenyl)-1,3,3-trimethylbicyclo[2.2.1]heptan-2-ol] | 47.7 nM |  |  | > 10000 | inhibition of [3H]CP-55,940 binding to hCB1R (human CB1R (hCB1R); result in words): no measurable inhibition
14 | CCCCCc1ccc(OC)c(C2(O)C3(C)CCC(C3)C2(C)C)c1 (stereo not shown) [Compound 3d, 2-(2′-Methoxy-5′-pentylphenyl)-1,3,3-trimethylbicyclo[2.2.1]heptan-2-ol] | 834 nM |  |  |  | 
15 | CCC(C)(C)c1ccc(OC)c(C2(O)C3(C)CCC(C3)C2(C)C)c1 (stereo not shown) [Compound 3f, 2-(2′-Methoxy-5′-(tert-pentyl)phenyl)-1,3,3-trimethylbicyclo[2.2.1] heptan-2-ol] | 1450 nM |  |  |  | 
16 | CCCCCc1cc(O)c(C2(O)C3(C)CCC(C3)C2(C)C)c(OC)c1 (stereo not shown) [Compound 5a, 2-(2′-hydroxy-6′-methoxy-4′-pentylphenyl)-1,3,3-trimethylbicyclo[2.2.1]heptan-2-ol] | 4980 nM |  |  | > 10000 | 
17 | CCCCCCC(C)(C)c1cc(OC)c(C2(O)C3(C)CCC(C3)C2(C)C)c(OC)c1 (stereo not shown) [Compound 1d, 2-(2′,6′-Dimethoxy-4′-(2″-methyloctan-2″-yl)phenyl)-1,3,3-trimethylbicyclo[2.2.1]heptan-2-ol] |  |  | 2.59 |  | E(max)% (hCB2R; [4]): 89.6%; Ki (human CB2R (hCB2R); Ki (nM) hCB2R): 3.51 nM; reduction in swelling ([1]; 15 mg/kg ip): 30%; reduction in swelling ([1]; 25 mg/kg ip): 54%; inhibition of TNF-α serum levels (TNF-α; 15 mg/kg ip): 26%; inhibition of TNF-α serum levels (TNF-α; 25 mg/kg ip): 40%; anti-nociceptive effect (paw withdrawal threshold, von Frey) [2]: strong anti-nociceptive effects
18 | CCCc1ccc(OC)c(C2(O)C3(C)CCC(C3)C2(C)C)c1 (stereo not shown) [Compound 3a, 2-(2′-Methoxy-5′-propylphenyl)-1,3,3-trimethylbicyclo[2.2.1]heptan-2-ol] | 1010 nM |  |  | > 10000 | 
19 | CCCCCc1cc(O)c(C2(O)C3(C)CCC(C3)C2(C)C)c(OC)c1 (stereo not shown) [Compound 5b, 2-(2′-hydroxy-6′-methoxy-4′-pentylphenyl)-1,3,3-trimethylbicyclo[2.2.1]heptan-2-ol] | 36.5 nM | agonist | 82.8 |  | E(max)% (hCB2R): 69.5%
20 | CCCCCc1cc(OC)c(C2(O)C3(C)CCC(C3)C2(C)C)c(OC)c1F (stereo not shown) [Compound 4a, 2-(3′-Fluoro-2′,6′-dimethoxy-4′-pentylphenyl)-1,3,3-trimethylbicyclo[2.2.1]heptan-2-ol] | 155 nM |  |  | > 10000 | 
21 | COc1cc(C)cc(OC)c1C1(O)C2(C)CCC(C2)C1(C)C (stereo not shown) [Compound 1e, 2-(2′,6′-Dimethoxy-4′-methylphenyl)-1,3,3-trimethylbicyclo[2.2.1]heptan-2-ol] |  |  |  | > 10000 | Ki (human CB2R (hCB2R); displacement of [3H]CP-55,940, value given in µM, read-out: Ki (nM) hCB2R): > 10000 nM
22 | CCCCCc1ccc(OC)c(C2(O)C3(C)CCC(C3)C2(C)C)c1 (stereo not shown) [Compound 3c, 2-(2′-Methoxy-5′-pentylphenyl)-1,3,3-trimethylbicyclo[2.2.1]heptan-2-ol] | 444 nM |  |  | > 10000 | 
23 | CCCCCCC(C)(C)c1cc(OC)c([C@@H]2C=C(CO)[C@@H]3C[C@H]2C3(C)C)c(OC)c1 [HU-308, reference compound] |  | agonist |  |  | Ki (human CB1R (hCB1R)): > 10000 nM; E(max)% (hCB2R; [4]): 100%; reduction in swelling ([1]; 25 mg/kg ip): 20%; inhibition of TNF-α serum levels (TNF-α; 25 mg/kg ip): 28%
24 | CCCCCc1cc(OC)c(C2(O)C3(C)CCC(C3)C2(C)C)c(OC)c1 (stereo not shown) [Compound 1b, 2-(2′,6′-Dimethoxy-4′-pentylphenyl)-1,3,3-trimethylbicyclo[2.2.1]heptan-2-ol] | 14.4 nM | agonist | 11.6 |  | E(max)% (hCB2R): 65.1%; reduction in swelling ([1]; 25 mg/kg ip): 54%; inhibition of TNF-α serum levels (TNF-α; 25 mg/kg ip): 39%
25 | CCCCCCCCc1ccc(OC)c(C2(O)C3(C)CCC(C3)C2(C)C)c1 (stereo not shown) [Compound 3h, 2-(2′-Methoxy-5′-octylphenyl)-1,3,3-trimethylbicyclo[2.2.1]heptan-2-ol] |  |  |  | > 10000 | 
